Measured values taken from ChEMBL document CHEMBL1145390, “Synthesis and preliminary biological characterization of new semisynthetic derivatives of ramoplanin” (J Med Chem, 2007).
Converted amounts (≈) assume the structure as drawn.

Assays:
Enterococcus faecalis [1] = experiment: Antibacterial activity against Enterococcus faecalis after 24 hrs by broth microdilution method; type: functional; conditions: read-out: MIC
Staphylococcus aureus [2] = experiment: Antibacterial activity against Staphylococcus aureus Smith after 24 hrs by broth microdilution method; type: functional; conditions: read-out: MIC
Staphylococcus aureus [3] = experiment: Antibacterial activity against methicillin-resistant Staphylococcus aureus clinical isolate after 24 hrs by broth microdilution method; type: functional; conditions: read-out: MIC
Staphylococcus aureus [4] = experiment: Antibacterial activity against methicillin-resistant and vancomycin-intermediate resistant Staphylococcus aureus clinical isolate after 24 hrs by broth microdilution method; type: functional; conditions: read-out: MIC
Staphylococcus aureus [5] = experiment: Antibacterial activity against vancomycin-intermediate resistant Staphylococcus aureus clinical isolate after 24 hrs by broth microdilution method; type: functional
Streptococcus pyogenes = experiment: Antibacterial activity against Streptococcus pyogenes C203 after 24 hrs by broth microdilution method; type: functional; conditions: C203, 24 h, read-out: MIC
Enterococcus faecalis [6] = experiment: Antibacterial activity against vancomycin A-resistant Enterococcus faecalis after 24 hrs by broth microdilution method; type: functional; conditions: read-out: MIC
Enterococcus faecium [7] = experiment: Antibacterial activity against Enterococcus faecium after 24 hrs by broth microdilution method; type: functional; conditions: read-out: MIC
Enterococcus faecium [8] = experiment: Antibacterial activity against vancomycin A-resistant Enterococcus faecium clinical isolate after 24 hrs by broth microdilution method; type: functional; conditions: read-out: MIC
Escherichia coli = experiment: Antibacterial activity against Escherichia coli SKF-12140 after 24 hrs by broth microdilution method; type: functional; conditions: read-out: MIC
Candida albicans = experiment: Antifungal activity against Candida albicans SKF-2270 after 24 hrs by broth microdilution method; type: functional; conditions: read-out: MIC
Staphylococcus aureus [9] = experiment: Antibacterial activity against vancomycin-intermediate resistant Staphylococcus aureus clinical isolate in presence of 30% bovine serum after 24 hrs by broth microdilution method; type: functional
Staphylococcus aureus [10] = experiment: Antibacterial activity against Staphylococcus aureus Smith in presence of 30% bovine serum after 24 hrs by broth microdilution method; type: functional
Enterococcus faecalis [11] = experiment: Antibacterial activity against vancomycin-resistant Enterococcus faecalis in presence of 30% bovine serum after 24 hrs by broth microdilution method; type: functional
Enterococcus faecium [12] = experiment: Antibacterial activity against vancomycin A-resistant Enterococcus faecium clinical isolate in presence of 30% bovine serum after 24 hrs by broth microdilution method; type: functional
[13] = Toxicity assessed as hemolysis in erythrocytes at 800 mg/L; type: cell-based, Erythrocyte; conditions: human, read-out: Activity
[14] = Toxicity assessed as hemolysis in erythrocytes at 400 mg/L; type: cell-based, Erythrocyte; conditions: human, read-out: Activity
[15] = Toxicity assessed as hemolysis in erythrocytes at 200 mg/L; type: cell-based, Erythrocyte; conditions: human, read-out: Activity
[16] = Toxicity assessed as hemolysis in erythrocytes at 100 mg/L; type: cell-based, Erythrocyte; conditions: human, read-out: Activity
[17] = Toxicity assessed as hemolysis in erythrocytes at 1600 mg/L; type: cell-based, Erythrocyte; conditions: human, read-out: Activity
[18] = Toxicity assessed as hemolysis in erythrocytes at 180 mg/L; type: cell-based, Erythrocyte; conditions: human, erythrocytes; read-out: Activity
[19] = Toxicity assessed as hemolysis in erythrocytes at 90 mg/L; type: cell-based, Erythrocyte; conditions: human, erythrocytes; read-out: Activity

Compound | MIC (Enterococcus faecalis [1]) [µg/mL] | MIC (Staphylococcus aureus [2]) [µg/mL] | MIC (Staphylococcus aureus [3]) [µg/mL] | MIC (Staphylococcus aureus [4]) [µg/mL] | MIC (Staphylococcus aureus [5]) [µg/mL] | MIC (Streptococcus pyogenes) [µg/mL] | MIC (Enterococcus faecalis [6]) [µg/mL] | MIC (Enterococcus faecium [7]) [µg/mL] | MIC (Enterococcus faecium [8]) [µg/mL] | MIC (Escherichia coli) [µg/mL] | MIC (Candida albicans) [µg/mL] | MIC (Staphylococcus aureus [9]) [µg/mL] | MIC (Staphylococcus aureus [10]) [µg/mL] | MIC (Enterococcus faecalis [11]) [µg/mL] | MIC (Enterococcus faecium [12]) [µg/mL] | hemolysis at 800 mg/L [13] [%] | hemolysis at 400 mg/L [14] [%] | hemolysis at 200 mg/L [15] [%] | hemolysis at 100 mg/L [16] [%] | hemolysis at 1600 mg/L [17] [%] | also measured
CC/C=C/C=C\CC(=O)N[C@@H](CC(N)=O)C(=O)NC[C@@H]1C(=O)N[C@H](c2ccc(O)cc2)C(=O)N[C@H](CCCN)C(=O)N[C@H](C(C)C)C(=O)N[C@@H](c2ccc(O)cc2)C(=O)N[C@H](c2ccc(O)cc2)C(=O)N[C@@H]([C@@H](C)O)C(=O)N[C@@H](Cc2ccccc2)C(=O)N[C@H](CCCN)C(=O)N[C@@H](c2ccc(O[C@H]3O[C@H](CO)[C@@H](O)[C@H](O)[C@@H]3O[C@H]3O[C@H](CO)[C@@H](O)[C@H](O)[C@@H]3O)cc2)C(=O)N[C@H]([C@@H](C)O)C(=O)N[C@@H](c2ccc(O)cc2)C(=O)NCC(=O)N[C@@H](CC(C)C)C(=O)N[C@H](C)C(=O)N[C@@H](c2ccc(O)c(Cl)c2)C(=O)O[C@@H]1C(N)=O | 0.5 (≈ 0.196 µM) | 0.25 (≈ 0.098 µM) | 0.25 (≈ 0.098 µM) | 2 (≈ 0.784 µM) | 1 (≈ 0.392 µM) | ≤ 0.125 | 0.25 (≈ 0.098 µM) | 0.5 (≈ 0.196 µM) | 0.25 (≈ 0.098 µM) | > 128 | > 128 | 2 | 0.5 | 0.5 | 1 | 96 | 51 | 45 | 38 | – | –
CCCCC(CC)C(=O)N[C@@H](CC(N)=O)C(=O)NC[C@@H]1C(=O)N[C@H](c2ccc(O)cc2)C(=O)N[C@H](CCCN)C(=O)N[C@H](C(C)C)C(=O)N[C@@H](c2ccc(O)cc2)C(=O)N[C@H](c2ccc(O)cc2)C(=O)N[C@@H]([C@@H](C)O)C(=O)N[C@@H](Cc2ccccc2)C(=O)N[C@H](CCCN)C(=O)N[C@@H](c2ccc(O[C@H]3O[C@H](CO)[C@@H](O)[C@H](O)[C@@H]3O[C@H]3O[C@H](CO)[C@@H](O)[C@H](O)[C@@H]3O)cc2)C(=O)N[C@H]([C@@H](C)O)C(=O)N[C@@H](c2ccc(O)cc2)C(=O)NCC(=O)N[C@@H](CC(C)C)C(=O)N[C@H](C)C(=O)N[C@@H](c2ccc(O)c(Cl)c2)C(=O)O[C@@H]1C(N)=O (some centres undefined) | 0.5 (≈ 0.196 µM) | 0.25 (≈ 0.0978 µM) | 0.25 (≈ 0.0978 µM) | 2 (≈ 0.782 µM) | 1 (≈ 0.391 µM) | ≤ 0.125 | 0.25 (≈ 0.0978 µM) | 0.5 (≈ 0.196 µM) | 0.5 (≈ 0.196 µM) | > 128 | > 128 | 2 | 0.5 | 1 | 1 | 73 | 8 | 4 | 0 | 83 | –
Cc1ccccc1CC(=O)N[C@@H](CC(N)=O)C(=O)NC[C@@H]1C(=O)N[C@H](c2ccc(O)cc2)C(=O)N[C@H](CCCN)C(=O)N[C@H](C(C)C)C(=O)N[C@@H](c2ccc(O)cc2)C(=O)N[C@H](c2ccc(O)cc2)C(=O)N[C@@H]([C@@H](C)O)C(=O)N[C@@H](Cc2ccccc2)C(=O)N[C@H](CCCN)C(=O)N[C@@H](c2ccc(O[C@H]3O[C@H](CO)[C@@H](O)[C@H](O)[C@@H]3O[C@H]3O[C@H](CO)[C@@H](O)[C@H](O)[C@@H]3O)cc2)C(=O)N[C@H]([C@@H](C)O)C(=O)N[C@@H](c2ccc(O)cc2)C(=O)NCC(=O)N[C@@H](CC(C)C)C(=O)N[C@H](C)C(=O)N[C@@H](c2ccc(O)c(Cl)c2)C(=O)O[C@@H]1C(N)=O | 0.5 (≈ 0.195 µM) | ≤ 0.125 | ≤ 0.125 | 2 (≈ 0.781 µM) | 1 (≈ 0.39 µM) | ≤ 0.125 | 0.25 (≈ 0.0976 µM) | 0.5 (≈ 0.195 µM) | 0.5 (≈ 0.195 µM) | > 128 | > 128 | 1 | 0.25 | 0.5 | 1 | 2 | 1 | 1 | 1 | 5 | –
Cc1ccccc1C(=O)N[C@@H](CC(N)=O)C(=O)NC[C@@H]1C(=O)N[C@H](c2ccc(O)cc2)C(=O)N[C@H](CCCN)C(=O)N[C@H](C(C)C)C(=O)N[C@@H](c2ccc(O)cc2)C(=O)N[C@H](c2ccc(O)cc2)C(=O)N[C@@H]([C@@H](C)O)C(=O)N[C@@H](Cc2ccccc2)C(=O)N[C@H](CCCN)C(=O)N[C@@H](c2ccc(O[C@H]3O[C@H](CO)[C@@H](O)[C@H](O)[C@@H]3O[C@H]3O[C@H](CO)[C@@H](O)[C@H](O)[C@@H]3O)cc2)C(=O)N[C@H]([C@@H](C)O)C(=O)N[C@@H](c2ccc(O)cc2)C(=O)NCC(=O)N[C@@H](CC(C)C)C(=O)N[C@H](C)C(=O)N[C@@H](c2ccc(O)c(Cl)c2)C(=O)O[C@@H]1C(N)=O | 2 (≈ 0.785 µM) | 1 (≈ 0.392 µM) | 1 (≈ 0.392 µM) | 8 (≈ 3.14 µM) | 8 (≈ 3.14 µM) | ≤ 0.125 | 2 (≈ 0.785 µM) | 2 (≈ 0.785 µM) | 4 (≈ 1.57 µM) | > 128 | > 128 | 4 | 1 | 2 | ≤ 0.125 | 94 | 83 | 17 | 2 | 93 | –
CC(C)C[C@@H]1NC(=O)CNC(=O)[C@H](c2ccc(O)cc2)NC(=O)[C@@H]([C@@H](C)O)NC(=O)[C@H](c2ccc(O[C@H]3O[C@H](CO)[C@@H](O)[C@H](O)[C@@H]3O[C@H]3O[C@H](CO)[C@@H](O)[C@H](O)[C@@H]3O)cc2)NC(=O)[C@@H](CCCN)NC(=O)[C@H](Cc2ccccc2)NC(=O)[C@H]([C@@H](C)O)NC(=O)[C@@H](c2ccc(O)cc2)NC(=O)[C@H](c2ccc(O)cc2)NC(=O)[C@@H](C(C)C)NC(=O)[C@@H](CCCN)NC(=O)[C@@H](c2ccc(O)cc2)NC(=O)[C@@H](CNC(=O)[C@H](CC(N)=O)NC(=O)Cc2cccc3ccccc23)[C@@H](C(N)=O)OC(=O)[C@H](c2ccc(O)c(Cl)c2)NC(=O)[C@@H](C)NC1=O.Cl | ≤ 0.06 | ≤ 0.06 | ≤ 0.06 | 2 | 0.25 | ≤ 0.06 | ≤ 0.06 | 0.125 | ≤ 0.06 | > 128 | > 128 | 1 | 0.25 | 0.25 | 0.5 | 98 | 60 | 30 | – | – | hemolysis at 180 mg/L [18]: 28%; hemolysis at 90 mg/L [19]: 15%
